This is an account of results in US11345716B2, “Nitrogen-containing condensed ring compounds having dopamine D3 antagonistic effect” (Shionogi & Co., Ltd., priority 2016, dated 2022).

One assay has as its system impulsivity in rat. As to the kind of experiment: Effect of suppressing impulsivity in rat (T-maze delayed large reward, i.p.). It counts as in vivo. The conditions noted are these: 3 mg/kg, total 50 trials of 5 days, versus vehicle control group. From the text:
Test Example 3-1: Effect of Suppressing Impulsivity in Rat
Male Crl: WI rats were obtained at post-natal day 14 and weaning was occurred at post-natal day 21. Starting from then, the rats were housed 2-3 per cage and food-restricted (Day 1). The feeding amount was 5 g/day at post-natal day 21-28 (Day 1-8), 8.5 g/day at post-natal day 29-32 (Day 9-12), and 10 g/day at post-natal day 33-36 (Day 13-16), preventing their body weight from being 60% or less of the weight of the free feeding rats.
4 days after the beginning of the food restriction (Day 5), pellets were put on goal boxes located in the left-side and the right-side of T-maze. Then, the rats were allowed to freely explore the T-maze-box for 5 min to get habituated to the T-maze box and learn that the pellets were put on the goal boxes located in the left-side and the right-side. For 4 consecutive days from the next day (Day 6-9), one pellet (20 mg×1) was put in one side of the goal box as a small reward, and 5 pellets (20 mg×5) were put in the other side of the goal box as a large reward, and the rats were trained to learn their positions. Each rat underwent 10-trial per day trainings. […] The evaluations of the drug efficacy were started on Day 12. […]

The target of assay [1] is human recombinant dopamine D3 receptor (Homo sapiens (Human), UniProt P35462). As to the kind of experiment: Test of binding inhibition for the human dopamine D3 receptor (SPA, [3H]-Metylspiperone). The conditions noted are these: Jump-In HEK cell membranes, 2 nM [3H]-Metylspiperone, 120 min at 25° C.; read-out: hD3_Ki. The procedure:
Cell membranes: Jump-In HEK cell membranes expressing human recombinant dopamine D3 receptor (4 μg/well)
(§1) Non-specific ligand: (final concentration) 10 μM Butaclamol [(+)-Butaclamol Hydrochloride, D033, Sigma]
(§2) SPA beads: SPA beads [WGA PVT SPA Scintillation Beads, RPNQ0001 (500 mg), RPNQ0060 (2 g), PerkinElmer] (0.2 mg/well)
(§3) Incubation time and temperature: 120 min at 25° C.
(§4) Butaclamol or the compounds of the present invention were weighed and DMSO was added to make a 10 mM solution. This solution was diluted to each concentration.
[^3H]-Metylspiperone was weighed and the buffer solution was added to make a 6 nM solution.
SPA beads were weighed and stirred in water to make a 50 mg/mL solution. Using this solution, a mixed solution with the cell membranes was prepared.
Jump-In HEK Cell membranes (final reaction amount: 4 μg/well), SPA beads (final reaction amount: 0.2 mg/well) and Tris-HCl buffer were mixed and the mixed solution was left still for more than 60 min at 4° C. Then, 50 μL of the mixture was added to each well of the plate. In addition, 25 μL of 6 nM [^3H]-Metylspiperone (final concentration: 2 nM) was added to each well. […] Non-specific binding was calculated based on the radioactivity of [^3II]-Metylspiperone in the presence of 10 μM non-labeled Butaclamol. The total binding was calculated based on the radioactivity of [^3H]-Metylspiperone in the absence of the compounds of the present invention (Vehicle). The Ki values were calculated from dose-response curves.
Binding activities of the compounds of the present invention were calculated from the following Binding Inhibition Rate (%): Inhibition Rate (%)=[1−(c−a)(b−a)]*100(%) • a: Average cpm of non-specific binding • b: Average cpm of total binding • c: Cpm in the presence of each test compound

Assay [2] concerns the target human recombinant dopamine D2 receptor (Homo sapiens (Human), UniProt P14416). As to the kind of experiment: Test of binding inhibition for the human dopamine D2 receptor (SPA, [3H]-Metylspiperone). Conditions: Jump-In HEK cell membranes, 1.2 nM [3H]-Metylspiperone, 120 min at 25° C.; read-out: hD2_Ki. The procedure:
Test Example 1: Test of Binding Inhibition for the Human Dopamine D2 Receptor
Cell membranes: Jump-In HEK cell membranes expressing human recombinant dopamine D2 receptor (2 μg/well)
Buffer solution: 50 mM Tris-HCl (35409-45, Nacalai Tesque) (pH 7.4) containing 120 mM NaCl (31320-05, Nacalai Tesque), 1 mM MgCl2.6H2O (20909-55, Nacalai Tesque). 5 mM KCl (28514-75, Nacalai Tesque) and 2 mM CaCl2 (067-31, Nacalai Chemical, Ltd)
Radioligand: (final concentration) 1.2 nM [^3H]-Metylspiperone ([^3H—N-methyl-]-Metylspiperone, NET-856, 83.8 Ci/mmol, PerkinElmer)
as §1, §2, §3, §4
[^3H]-Metylspiperone was weighed and the buffer solution was added to make a 3.6 nM solution.
SPA beads were weighed and stirred in water to moke a 50 mg/mL solution. Using this solution, a mixed solution with the cell membranes was prepared.
225 nL of the solutions of the non-specific ligand or the compounds of the present invention at each concentration (in case of vehicle, final concentration 0.3% DMSO) were added in each well of a 384-well white/clear bottom microplate (3706, Corning). Jump-In HEK Cell membranes (final reaction amount: 2 μg protein/well), SPA beads (final reaction amount: 0.2 mg/well) and the buffer were mixed and the mixed solution was left still for more than or equal to 1 h at 4° C. Then, 50 μL of the mixture was added to each well of the plate. In addition, 25 μL of 3.6 nM [^3H]-Metylspiperone (final concentration: 1.2 nM) was added to each well. The plate was sealed by putting TopSeal-A 96/384 well (6050185, PerkinElmer) on the top of the plate, mixed using stirring deaerator (Welltornado, FK-62, Sakaki) and incubated for 120 min at 25° C. After incubation, the radioactivity of [^3H]-Metylspiperone which was binded to D2 receptor was determined by liquid scintillation counter (1450 Microbeta, PerkinElmer) in each well. Non-specific binding was calculated based on the radioactivity of [^3H]-Metylspiperone in the presence of 10 μM non-labeled Butaclamol. The total binding was calculated using the radioactivity of [^3H]-Metylspiperone in the absence of the compounds of the present invention (Vehicle). The Ki values were calculated from dose-response curves.
Binding activities of the compounds of the present invention were calculated from the following Binding Inhibition Rate (%): Inhibition Rate (%)=[1−(c−a)(b−a)]×100(%) • a: Average cpm of non-specific binding • b: Average cpm of total binding • c: Cpm in the presence of each test compound

A value given as a limit tells only on which side of the number the result lay.

Chain of human recombinant dopamine D3 receptor (P35462 whole entry): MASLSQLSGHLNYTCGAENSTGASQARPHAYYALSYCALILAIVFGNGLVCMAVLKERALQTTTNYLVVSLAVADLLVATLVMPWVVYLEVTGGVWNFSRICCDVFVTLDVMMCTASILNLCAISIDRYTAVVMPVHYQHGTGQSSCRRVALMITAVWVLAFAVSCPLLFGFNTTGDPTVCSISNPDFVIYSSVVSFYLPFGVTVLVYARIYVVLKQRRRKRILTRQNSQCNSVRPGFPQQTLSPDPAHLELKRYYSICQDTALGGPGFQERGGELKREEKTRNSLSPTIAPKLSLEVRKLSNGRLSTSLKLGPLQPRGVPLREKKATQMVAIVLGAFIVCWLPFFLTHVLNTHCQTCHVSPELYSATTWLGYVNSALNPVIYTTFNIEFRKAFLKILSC
Chain of human recombinant dopamine D2 receptor (P14416 whole entry): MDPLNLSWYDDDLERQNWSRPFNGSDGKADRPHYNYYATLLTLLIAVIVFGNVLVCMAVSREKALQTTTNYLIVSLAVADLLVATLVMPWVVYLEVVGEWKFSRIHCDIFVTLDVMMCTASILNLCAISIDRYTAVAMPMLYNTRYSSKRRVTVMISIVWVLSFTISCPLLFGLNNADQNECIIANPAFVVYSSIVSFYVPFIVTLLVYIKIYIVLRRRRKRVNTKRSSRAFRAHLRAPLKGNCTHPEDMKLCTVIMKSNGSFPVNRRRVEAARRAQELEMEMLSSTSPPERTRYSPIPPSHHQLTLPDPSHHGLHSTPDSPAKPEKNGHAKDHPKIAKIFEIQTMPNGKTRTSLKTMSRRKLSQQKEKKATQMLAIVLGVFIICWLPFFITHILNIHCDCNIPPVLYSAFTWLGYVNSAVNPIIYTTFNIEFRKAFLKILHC

Consider `O=C(N[C@H]1CC[C@H](CCN2CCc3sc(OCC(F)F)nc3C2)CC1)c1cccc2ncccc12` [Compound I-085], for which the “number of choices for the large reward” value in the assay on impulsivity in rat is “significantly increased”. As for `Cc1cc(CC(=O)N[C@H]2CC[C@H](CCN3CCc4sc(N5CC(F)(F)C5)nc4C3)CC2)on1` [Compound I-098], the Ki in assay [1] came to 0.12 nM; in assay [2] it was 1600 nM. With `COc1cc(CCC(=O)N[C@H]2CC[C@H](CCN3CCc4ccc(OCC(F)F)nc4CC3)CC2)on1` [II-041], the Ki in assay [1] worked out at 0.058 nM; in assay [2], 290 nM. The matching figures for `Cc1cn2c(C(=O)N[C@H]3CC[C@H](CCN4CCc5ccc(OCC(F)F)nc5CC4)CC3)cccc2n1` [II-057]: 0.014 nM and above 1700 nM. The matching figures for `Cc1ncc(CC(=O)N[C@H]2CC[C@H](CCN3CCc4cnc(OCC(F)F)nc4CC3)CC2)s1` [II-062]: 1.1 nM and above 1700 nM. On the same counts, the results for `Cc1ncc(CC(=O)N[C@H]2CC[C@H](CCN3CCc4cc(C)c(OCC(F)F)nc4CC3)CC2)s1` [III-008] are 0.25 nM and 480 nM.
